Data taken from patent US20230212144A1, “5-MEMBERED HETEROARYL DERIVATIVE CONTAINING AT LEAST ONE N, AND PHARMACEUTICAL COMPOSITION FOR PREVENTING OR TREATING MENTAL DISORDERS, CONTAINING SAME AS ACTIVE INGREDIENT” (DAEGU-GYEONGBUK MEDICAL INNOVATION FOUNDATION, priority 2020, published 2023).

Tests used:
[1] = molecular target: serotonin transporter (SERT) (Homo sapiens, UniProt P31645); assay: Serotonin reuptake inhibition, [3H]-5-HT, cells transfected with 5-HT transporter cDNA; details: for Triple reuptake inhibition (Ratio %) SERT: compound 1 μM, relative to control without compound (100%), lower value = stronger inhibition
[2] = molecular target: norepinephrine transporter (NET) (Homo sapiens, UniProt P23975); assay: Norepinephrine reuptake inhibition, [3H]-NE, cells transfected with NE transporter cDNA; details: for Triple reuptake inhibition (Ratio %) NET: compound 1 μM, relative to control without compound (100%), lower value = stronger inhibition
[3] = molecular target: dopamine transporter (DAT) (Homo sapiens, UniProt Q01959); assay: Dopamine reuptake inhibition, [3H]-DA, HEK-293 cells transfected with dopamine transporter cDNA; details: for Triple reuptake inhibition (Ratio %) DAT: compound 1 μM, relative to control without compound (100%), lower value = stronger inhibition
Sequence of dopamine transporter (DAT) (Q01959 whole entry, species assumed): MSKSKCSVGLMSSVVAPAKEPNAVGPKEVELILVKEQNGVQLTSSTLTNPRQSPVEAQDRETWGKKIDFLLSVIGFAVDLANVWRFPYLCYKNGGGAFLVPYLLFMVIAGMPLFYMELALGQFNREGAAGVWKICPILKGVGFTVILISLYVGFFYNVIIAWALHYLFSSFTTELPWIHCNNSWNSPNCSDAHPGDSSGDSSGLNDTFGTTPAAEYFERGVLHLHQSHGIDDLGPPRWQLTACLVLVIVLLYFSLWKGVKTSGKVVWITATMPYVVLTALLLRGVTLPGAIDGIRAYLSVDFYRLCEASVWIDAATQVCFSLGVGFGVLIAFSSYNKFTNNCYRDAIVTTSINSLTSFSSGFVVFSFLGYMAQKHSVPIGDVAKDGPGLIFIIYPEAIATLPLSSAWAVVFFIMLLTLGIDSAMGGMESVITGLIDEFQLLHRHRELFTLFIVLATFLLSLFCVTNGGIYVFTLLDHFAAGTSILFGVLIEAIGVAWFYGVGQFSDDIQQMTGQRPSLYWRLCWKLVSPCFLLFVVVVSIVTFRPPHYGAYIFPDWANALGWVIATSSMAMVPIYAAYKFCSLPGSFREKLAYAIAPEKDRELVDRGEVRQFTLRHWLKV

Sequence of serotonin transporter (SERT) (P31645 whole entry, species assumed): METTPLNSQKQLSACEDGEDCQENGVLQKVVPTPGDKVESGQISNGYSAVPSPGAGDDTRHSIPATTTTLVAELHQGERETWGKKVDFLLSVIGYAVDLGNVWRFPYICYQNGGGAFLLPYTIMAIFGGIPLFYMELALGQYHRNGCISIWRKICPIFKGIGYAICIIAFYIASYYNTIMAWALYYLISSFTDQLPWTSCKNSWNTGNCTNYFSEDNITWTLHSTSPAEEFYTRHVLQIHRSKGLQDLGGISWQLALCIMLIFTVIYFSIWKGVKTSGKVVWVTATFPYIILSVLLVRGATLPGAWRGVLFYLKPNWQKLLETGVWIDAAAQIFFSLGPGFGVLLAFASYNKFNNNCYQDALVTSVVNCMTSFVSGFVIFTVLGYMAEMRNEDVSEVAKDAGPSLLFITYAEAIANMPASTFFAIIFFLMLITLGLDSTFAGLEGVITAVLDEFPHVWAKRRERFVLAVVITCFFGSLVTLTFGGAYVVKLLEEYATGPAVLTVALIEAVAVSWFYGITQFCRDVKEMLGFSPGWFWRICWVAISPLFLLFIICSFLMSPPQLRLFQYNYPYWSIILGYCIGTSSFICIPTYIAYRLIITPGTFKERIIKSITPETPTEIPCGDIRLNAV
Sequence of norepinephrine transporter (NET) (P23975 whole entry, species assumed): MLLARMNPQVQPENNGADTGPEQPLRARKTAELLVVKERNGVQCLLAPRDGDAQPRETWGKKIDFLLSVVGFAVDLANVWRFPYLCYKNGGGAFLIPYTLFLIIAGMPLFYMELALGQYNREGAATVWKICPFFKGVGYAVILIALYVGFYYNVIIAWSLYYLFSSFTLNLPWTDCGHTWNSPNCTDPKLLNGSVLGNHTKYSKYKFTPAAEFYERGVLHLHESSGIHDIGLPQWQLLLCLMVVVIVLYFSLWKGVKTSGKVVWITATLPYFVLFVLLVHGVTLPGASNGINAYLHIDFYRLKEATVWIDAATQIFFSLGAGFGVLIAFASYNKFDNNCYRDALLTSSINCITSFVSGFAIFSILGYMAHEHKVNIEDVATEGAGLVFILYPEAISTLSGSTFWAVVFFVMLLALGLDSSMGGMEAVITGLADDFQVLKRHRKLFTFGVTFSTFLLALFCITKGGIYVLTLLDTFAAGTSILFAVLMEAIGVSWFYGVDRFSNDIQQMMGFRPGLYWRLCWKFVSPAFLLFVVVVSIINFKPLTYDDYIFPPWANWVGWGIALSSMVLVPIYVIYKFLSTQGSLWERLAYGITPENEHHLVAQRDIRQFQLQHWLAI

| IC50 [1] [nM] | Triple reuptake inhibition (Ratio %) SERT [1] [%] | IC50 [2] [nM] | Triple reuptake inhibition (Ratio %) NET [2] [%] | IC50 [3] [nM] | Triple reuptake inhibition (Ratio %) DAT [3] [%] | Compound |
| --- | --- | --- | --- | --- | --- | --- |
| 5700 | 66.02 | 176 | 27.46 | 236 | 20.84 | FC(F)(F)c1ccc(-c2nnc(CN3CCC(Cc4ccccc4)CC3)[nH]2)cc1 [Example 50, 4-benzyl-1-((5-(4-(trifluoromethyl)phenyl)-4H-1,2,4-triazol-3-yl)methyl)piperidine] |
|  | 38.36 |  | 56.36 |  | 75.88 | CC(=O)Nc1ccc(-c2nnc(CN3CCC(Cc4ccccc4)CC3)[nH]2)cc1 [Example 51, N-(4-(5-((4-benzylpiperidin-1-yl)methyl)-4H-1,2,4-triazol-3-yl)phenyl)acetamide] |
|  | 52.31 |  | 50.92 |  | 48.72 | Oc1ccc2cc(-c3nnc(CN4CCC(Cc5ccccc5)CC4)[nH]3)ccc2c1 [Example 52, 6-(5-((4-benzylpiperidin-1-yl)methyl)-4H-1,2,4-triazol-3-yl)naphthalen-2-ol] |
|  | 77.61 |  | 28.99 |  | 52.90 | c1ccc(CC2CCN(Cc3nnc(-c4ccc(Oc5ccccc5)cc4)[nH]3)CC2)cc1 [Example 53, 4-benzyl-1-((5-(4-phenoxyphenyl)-4H-1,2,4-triazol-3-yl)methyl)piperidine] |
|  | 88.15 |  | 52.40 |  | 38.97 | FC(F)(F)Oc1cccc(-c2nnc(CN3CCC(Cc4ccccc4)CC3)[nH]2)c1 [Example 54, 4-benzyl-1-((5-(3-(trifluoromethoxy)phenyl)-4H-1,2,4-triazol-3-yl)methyl)piperidine] |
|  | 86.78 |  | 66.71 |  | 40.14 | FC(F)(F)c1cccc(-c2nnc(CN3CCC(Cc4ccccc4)CC3)[nH]2)c1 [Example 55, 4-benzyl-1-((5-(3-(trifluoromethyl)phenyl)-4H-1,2,4-triazol-3-yl)methyl)piperidine] |
| 300 | 15.26 | 640 | 39.66 | 1200 | 45.52 | COc1ccc2c(-c3nnc(CN4CCC(Cc5ccccc5)CC4)[nH]3)c[nH]c2c1 [Example 56, 3-(5-((4-benzylpiperidin-1-yl)methyl)-4H-1,2,4-triazol-3-yl)-6-methoxy-1H-indole] |
| 580 | 56.55 | 463 | 37.21 | 208 | 20.95 | NC(=O)c1ccc2[nH]c(-c3nnc(CN4CCC(Cc5ccccc5)CC4)[nH]3)cc2c1 [Example 57, 2-(5-((4-benzylpiperidin-1-yl)methyl)-4H-1,2,4-triazol-3-yl)-1H-indol-5-carboxamide] |
| 226 | 31.88 |  | 77.82 |  | 75.06 | COc1ccc2c(-c3nnc(CN4CCC(Cc5ccc(Cl)c(Cl)c5)CC4)[nH]3)c[nH]c2c1 [Example 59, 3-(5-((4-(3,4-dichlorobenzyl)piperidin-1-yl)methyl)-4H-1,2,4-triazol-3-yl)-6-methoxy-1H-indole] |

| Compound | IC50 [1] [nM] | Triple reuptake inhibition (Ratio %) SERT [1] [%] | IC50 [2] [nM] | Triple reuptake inhibition (Ratio %) NET [2] [%] | IC50 [3] [nM] | Triple reuptake inhibition (Ratio %) DAT [3] [%] |
| --- | --- | --- | --- | --- | --- | --- |
| CN(C)CCNC(=O)c1ccc(-c2nnc(CN3CCC(Cc4ccccc4)CC3)[nH]2)cc1 [Example 58, 4-(5-((4-benzylpiperidin-1-yl)methyl)-4H-1,2,4-triazol-3-yl)-N-(2-(dimethylamino)ethyl)benzoamide] |  | 50.24 |  | 76.51 |  | 77.67 |
